Measured values reported in patent publication US10849985B2, “Method of targeting senescent cells” (Yeda Research and Development Co. Ltd., priority 2015, dated 2020).

Tests used:
cell-surface Grp94 = molecular target: T1, cell-surface Grp94 (Homo sapiens, UniProt P14625); assay: Flow cytometry of cell-surface Grp94 on live IMR90 cells; assay type: cell-based; conditions: 3 days after etoposide treatment
T1 construct: cell-surface Grp94 of live senescent etoposide-treated IMR90 cells after 24 hrs treatment with 10 or 100 μM GPM1; endogenous in cells; host or cells: IMR-90 human fibroblasts (ATCC), made senescent with etoposide
T1 sequence (P14625 22-803): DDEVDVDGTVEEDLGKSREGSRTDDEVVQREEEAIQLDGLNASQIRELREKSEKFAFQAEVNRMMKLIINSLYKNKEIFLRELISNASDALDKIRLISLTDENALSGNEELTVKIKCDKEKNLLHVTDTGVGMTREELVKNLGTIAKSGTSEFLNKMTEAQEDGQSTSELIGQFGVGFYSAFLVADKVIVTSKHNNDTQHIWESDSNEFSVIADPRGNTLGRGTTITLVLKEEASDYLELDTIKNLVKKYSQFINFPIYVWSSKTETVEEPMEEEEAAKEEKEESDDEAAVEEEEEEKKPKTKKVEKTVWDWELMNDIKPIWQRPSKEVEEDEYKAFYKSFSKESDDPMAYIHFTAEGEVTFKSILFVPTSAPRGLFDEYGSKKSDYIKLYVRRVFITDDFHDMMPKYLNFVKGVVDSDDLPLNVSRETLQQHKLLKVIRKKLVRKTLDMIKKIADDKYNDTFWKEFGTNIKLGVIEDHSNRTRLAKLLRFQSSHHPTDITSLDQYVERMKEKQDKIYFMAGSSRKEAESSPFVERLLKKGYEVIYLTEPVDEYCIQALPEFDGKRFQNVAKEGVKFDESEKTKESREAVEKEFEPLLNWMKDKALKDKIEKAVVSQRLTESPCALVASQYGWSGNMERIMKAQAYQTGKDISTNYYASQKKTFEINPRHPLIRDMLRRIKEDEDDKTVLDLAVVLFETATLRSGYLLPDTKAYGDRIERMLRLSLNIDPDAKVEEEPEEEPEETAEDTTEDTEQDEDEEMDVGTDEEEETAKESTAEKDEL
Excerpt: FIGS. 3A-F. Grp94 translocates to cell-surface of senescent cells. (A) Flow cytometry histogram for the frequency cell-surface Grp94 of live IMR90 cells 0, 3, 7, 14, or 21 days after etoposide treatment. (B) Quantitative analysis of cell-surface Grp94 on live IMR90 cells 0, 3, 7, 14, or 21 days after etoposide treatment. (C) Scheme describing the mechanism of GPM1-mediated blockage of Grp94 translocation to cell-surface. (D) PrestoBlue viability assay for IMR90 growing or senescent Etoposide-treated cells after 24 hrs treatment with 1, 10, or 100 μM GPM1. […] (E) Flow cytometry histogram for the frequency of cell-surface Grp94 of live senescent etoposide-treated IMR90 cells after 24 hrs treatment with 10 or 100 μM GPM1. (F) Quantitative analysis of cell-surface Grp94 on live senescent etoposide-treated IMR90 cells after 24 hrs treatment with 10 or 100 μM GPM1.
IMR-90 cells were gently dissociated from plates using TripLE express reagent (12604-013, Thermo Fisher Scientific), and maintained in cold FACS buffer (PBS containing 1% FCS and 0.1% Sodium Azid) throughout all procedure. […] Cells were analyzed in a SORP-LSRII instrument (BD Biosciences). […] Cells were gated by their size (FSC/SSC), DAPI negative (live cells) and then analyzed for their fluorescence intensity at the wavelength of 647 (cell-surface Grp94 level), using FlowJo v10 software.

cell surface Grp94 = assay: Cell-surface Grp94 of mouse embryonic fibroblasts; assay type: cell-based; conditions: MEFs 14 days after Etoposide treatment compared to growing MEFs
Method: FIGS. 4A-E. Extracellular Grp94 on senescent cells mediate cytotoxicity of innate components in-vitro. (A) Western blot analysis for Grp94/β-Tubulin in Etoposide-treated IMR90 cells 4 days after transfection with siControl or siHSP90B1 (HSP90B1 is a gene coding for Grp94). (B) PrestoBlue viability assay for Etoposide-treated IMR90 4 days after Transfection with siControl or siHSP90B1. (C) Cytotoxicity of NK92 cells in cultures of IMR90 cells treated with siControl or siHSP90B1. NK92 were added for 1 hour at a ratio of 1:3 (D) Crystal Violet staining for IMR90 cells after co-culturing with MM6 monocytes in the presence of GPM1. (E) Quantitative analysis of cell-surface Grp94 of Mouse embryonic fibroblasts (MEFs) 14 days after Etoposide treatment compared to growing MEFs.
The levels of cell surface Grp94 were also examined in mouse embryonic fibroblast cells (MEFs). […] The relatively high correlation between localization of Grp94 in human and mouse cells implies that it may serve as a new marker for senescent cells.

- cell-surface Grp94 levels (cell-surface Grp94): not elevated
SMILES: COc1cc([C@@H]2c3cc4c(cc3[C@@H](O[C@@H]3O[C@@H]5CO[C@@H](C)O[C@H]5[C@H](O)[C@H]3O)[C@H]3COC(=O)[C@H]23)OCO4)cc(OC)c1O [etoposide]
- cell surface Grp94 (cell surface Grp94): significant elevation
